The text below walks through data of patent US11628147B2, “Vitamin K2 compositions for the treatment of drug induced neuropathy” (priority 2017, dated 2023).

Data set [1] deals with symptoms of drug-induced peripheral neuropathy in multiple myeloma patients on chemotherapy. The experiment in a line: Open labelled study of vitamin K2-7 on drug-induced peripheral neuropathy, symptoms scored by VAS. The data set is classed as in vivo, human. The note with it: for VAS Score: scale 0-10. On the procedure: An open labelled study was conducted to evaluate the effect of vitamin K2-7 on drug-induced peripheral neuropathy. Patients who were diagnosed with multiple myeloma and are on chemotherapy treatment for the same, were assessed for the occurrence of symptoms of peripheral neuropathy and then selected. Patients were given 2 capsules of 100 mcg or 350 mcg of vitamin K2-7 along with the ongoing chemotherapy. The evaluation of symptoms of peripheral neuropathy (such as tingling, numbness, burning sensation, muscle cramps etc.) were assessed by VAS score (Schematic 1) from 0 to 10 (nil to unbearable). The scale has been used in various studies to measure the intensity and severity of various symptoms of neuropathy.
As the patients continued with the therapy, it was observed that the VAS score for all the symptoms decreased to between the range of “1” and “2”. This decrease has happened over a period of 2 to 5 months, depending upon the individual cases treated. […] The examples given in Table 1, summarises the data for 11 patients who were on vitamin K2-7 therapy for drug-induced peripheral neuropathy due to treatment for multiple myeloma. In Table 1, treatment administered refer to the cyclical chemotherapy provided to the patients of multiple myeloma (MM). These cycles are normally of 3 weeks or 21 days period, based on the attending physician's assessment of the patient's condition and tolerance.
However, vitamin K2-7 was administered daily as two […] capsules.
Treatment with vitamin K2-7 of subjects continued even after their having reached VAS score of “2”.
The gradation was judged by Physician based on following criteria. By using Visual Analog Scale, i.e. 0-10 point scale: 0=Absent; 1-3=Mild; 4-6=Moderate; 7-10=Severe.

The conditions of data set [2]: in vivo; cited from earlier work.
For data set [3] the following is noted: natural forms, even at high doses; cited from earlier work.

The structures appear in SMILES notation.

Turning to `CC(C)=CCC/C(C)=C/CC/C(C)=C/CC/C(C)=C/CC/C(C)=C/CC/C(C)=C/CC/C(C)=C/CC1=C(C)C(=O)c2ccccc2C1=O` [Vitamin K2-7, vitamin K2-7], the “improvement in peripheral neuropathy” value in data set [1] (1 of 11 patients who remained on 100 μg two times a day daily) is “significant improvement”. The “VAS Score” value was determined as 2 in data set [1] (Patient 1, chemotherapy Bortezomib, Cyclophosphamide, Dexamethasone since June 2014, K2-7 from 16 Jun. 15 (350 μg), VAS before 8, scored 10 Dec. 15); 2 in data set [1] (Patient 2, chemotherapy Lenalidomide, Dexamethasone since 2014, K2-7 from 25 Jun. 15 (350 μg), VAS before 8, scored 05 Nov. 15); 2 in data set [1] (Patient 3, chemotherapy Lenalidomide, Dexamethasone, Zolendronic Acid since 2015, K2-7 from 19 Aug. 15 (100 μg), VAS before 8, scored 14 Mar. 16); 1 in data set [1] (Patient 4, chemotherapy Bortezomib, Cyclophosphamide, Dexamethasone since 2015, K2-7 from 09 Jun. 16 (350 μg), VAS before 8, scored 22 Dec. 16); 2 in data set [1] (Patient 5, chemotherapy Bortezomib, Cyclophosphamide, Dexamethasone since 2016, K2-7 from 23 Feb. 17 (350 μg), VAS before 9, scored 12 Aug. 17); 2 in data set [1] (Patient 6, chemotherapy Rituximab, Cyclophosphamide, Doxorubicin, Vincristine, Prednisolone since November 2014, K2-7 from 22 May 17 (350 μg), VAS before 9, scored 04 Oct. 17). The “VAS Score” value is 2 in data set [1] (Patient 7, chemotherapy Lenalidomide, Dexamethasone since 2010, K2-7 from 30 Jun. 17 (350 μg), VAS before 8, scored 27 Dec. 17); 2 in data set [1] (Patient 8, chemotherapy Bortezomib, Cyclophosphamide, Dexamethasone since March 2017, K2-7 from 03 Nov. 17 (350 μg), VAS before 7, scored 03 Apr. 18); 2 in data set [1] (Patient 9, chemotherapy Bortezomib, Cyclophosphamide, Dexamethasone since 2016, K2-7 from 20 Jul. 16 (350 μg), VAS before 9, scored 11 Jan. 17); 3 in data set [1] (Patient 10, chemotherapy Lenalidomide, Dexamethasone since 2016, K2-7 from 10 Jun. 17 (350 μg), VAS before 8, scored 10 Jan. 18); 2 in data set [1] (Patient 11, chemotherapy Dexamethasone since 2016, K2-7 from 25 Mar. 17 (350 μg), VAS before 9, scored 29 Sep. 17). Besides, the “flare up of symptoms of drug-induced peripheral neuropathy” value in data set [1] (continuation of vitamin K2-7 during subsequent chemotherapy cycles) is reported as “prevented the flair up”. Moreover, the “adverse events during the vitamin K2-7 therapy” value in data set [1] (multiple myeloma patients on chemotherapy) is listed as “no adverse events were noted”. Further, the “effect of continued treatment after reaching VAS score of 2” value in data set [1] (treatment continued after VAS score of 2) is given as “stabilised the VAS Score”. Moreover, the half-life (as a rule, the time in which the quantity being followed falls by half) in data set [2] is “more than 72 hours”. In data set [3], the symptoms of toxicity entry is “have not produced symptoms of toxicity”.

With `CC1=C(C/C=C(\C)CCC[C@H](C)CCC[C@H](C)CCCC(C)C)C(=O)c2ccccc2C1=O` [vitamin K1, phylloquinonc], the half-life in data set [2] is 1.5 h.
